{
  "source": "ChEMBL document CHEMBL5518181",
  "about": "“Studies of antibacterial activity (in vitro and in vivo) and mode of action for des-acyl tridecaptins (DATs)” (Eur J Med Chem, 2024)",
  "key": {"Klebsiella pneumoniae [1]": {"tested_on": "Klebsiella pneumoniae", "assay": "Antibacterial activity against Klebsiella pneumoniae ATCC BAA-2470 expressing NDM-1 assessed as inhibition of bacterial growth incubated for 18 hrs", "type": "functional", "conditions": "read-out: MIC100"}, "Escherichia coli [2]": {"tested_on": "Escherichia coli", "assay": "Antibacterial activity against Escherichia coli ATCC 25922 assessed as inhibition of bacterial growth incubated for 18 hrs in presence of 5 mM KCl", "type": "functional, organism-based"}, "Cytochrome P450 1A2 [3]": {"biological_target": "T1, Cytochrome P450 1A2 (Homo sapiens, UniProt P05177)", "T1 sequence (P05177 whole entry)": "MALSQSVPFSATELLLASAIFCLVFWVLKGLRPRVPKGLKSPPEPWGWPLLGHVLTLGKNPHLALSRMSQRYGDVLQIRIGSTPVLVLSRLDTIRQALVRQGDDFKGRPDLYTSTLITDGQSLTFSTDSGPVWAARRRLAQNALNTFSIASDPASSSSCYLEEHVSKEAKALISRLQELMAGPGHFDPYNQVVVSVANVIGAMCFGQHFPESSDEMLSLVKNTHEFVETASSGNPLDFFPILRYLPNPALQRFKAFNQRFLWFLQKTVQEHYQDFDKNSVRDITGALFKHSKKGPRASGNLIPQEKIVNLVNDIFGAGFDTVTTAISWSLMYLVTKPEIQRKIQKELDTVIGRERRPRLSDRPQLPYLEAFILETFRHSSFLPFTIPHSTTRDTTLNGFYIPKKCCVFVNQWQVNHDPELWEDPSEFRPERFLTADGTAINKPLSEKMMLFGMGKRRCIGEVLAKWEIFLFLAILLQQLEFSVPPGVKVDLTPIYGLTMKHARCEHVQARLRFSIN", "assay": "Inhibition of CYP1A2 (unknown origin)", "type": "ADME"}, "Escherichia coli [4]": {"tested_on": "Escherichia coli", "assay": "Antibacterial activity against wild-type Escherichia coli ATCC 25922 assessed as inhibition of bacterial growth incubated for 18 hrs", "type": "functional", "conditions": "read-out: MIC100"}, "Escherichia coli [5]": {"tested_on": "Escherichia coli", "assay": "Antibacterial activity against wild-type Escherichia coli ATCC 25922 assessed as inhibition of bacterial growth by measuring fold increase in MIC incubated for 18 hrs in presence of 50% heat inactivated human serum relative to control", "type": "functional"}, "Escherichia coli [6]": {"tested_on": "Escherichia coli", "assay": "Antibacterial activity against Escherichia coli ATCC 25922 assessed as inhibition of bacterial growth incubated for 18 hrs in presence of 2 mM CaCl2", "type": "functional, organism-based"}, "Providencia stuartii": {"tested_on": "Providencia stuartii", "assay": "Antibacterial activity against Providencia stuartii ATCC 25826 assessed as inhibition of bacterial growth incubated for 18 hrs", "type": "functional", "conditions": "read-out: MIC100"}, "Escherichia coli [7]": {"tested_on": "Escherichia coli", "assay": "Antibacterial activity against Escherichia coli ATCC 35218 infected in Swiss albino mouse septicemia model assessed as log10 reduction in bacterial burden below stasis in spleen at 20 mg/kg, iv administered twice every 2 hrs and measured after 5 hrs", "type": "functional"}, "[8]": {"assay": "Clearance in rat microsomes", "type": "ADME, Microsome"}, "Staphylococcus aureus": {"tested_on": "Staphylococcus aureus", "assay": "Antibacterial activity against […] assessed as inhibition of bacterial growth incubated for 18 hrs", "type": "functional", "conditions": "ATCC 29213, read-out: MIC100"}, "Escherichia coli [9]": {"tested_on": "Escherichia coli", "assay": "Antibacterial activity against Escherichia coli ATCC 35218 infected in Swiss albino mouse septicemia model assessed as log10 reduction in bacterial burden below stasis in blood at 20 mg/kg, iv administered twice every 2 hrs and measured after 5 hrs", "type": "functional"}, "Cytochrome P450 1A2 [10]": {"biological_target": "T1, Cytochrome P450 1A2", "assay": "Induction of CYP1A2 (unknown origin)", "type": "ADME"}, "Klebsiella pneumoniae [11]": {"tested_on": "Klebsiella pneumoniae", "assay": "Antibacterial activity against Klebsiella pneumoniae ATCC 13883 assessed as inhibition of bacterial growth incubated for 18 hrs in presence of 25 mM bicarbonate", "type": "functional, organism-based"}, "Klebsiella pneumoniae [12]": {"tested_on": "Klebsiella pneumoniae", "assay": "Antibacterial activity against Klebsiella pneumoniae ATCC 43816 assessed as inhibition of bacterial growth incubated for 18 hrs", "type": "functional", "conditions": "read-out: MIC100"}, "Proteus mirabilis": {"tested_on": "Proteus mirabilis", "assay": "Antibacterial activity against Proteus mirabilis ATCC 25933 assessed as inhibition of bacterial growth incubated for 18 hrs", "type": "functional", "conditions": "read-out: MIC100"}, "Escherichia coli [13]": {"tested_on": "Escherichia coli", "assay": "Antibacterial activity against Escherichia coli ATCC 35218 infected in Swiss albino mouse septicemia model assessed as log10 reduction in bacterial burden below stasis in kidney at 20 mg/kg, iv administered twice every 2 hrs and measured after 5 hrs", "type": "functional"}, "Klebsiella pneumoniae [14]": {"tested_on": "Klebsiella pneumoniae", "assay": "Antibacterial activity against Klebsiella pneumoniae ATCC 13883 assessed as inhibition of bacterial growth incubated for 18 hrs in presence of 150 mM NaCl", "type": "functional, organism-based"}, "[15]": {"assay": "Clearance in mouse microsomes", "type": "ADME, Microsome"}, "[16]": {"assay": "Cytotoxicity against human HepG2 cells incubated for 40 hrs by celltiter-glo luminescent cell viability assay", "type": "toxicity, cell-based"}, "[17]": {"assay": "Hemolytic activity in human red blood cells at 400 ug/ml incubated for 45 mins by spectrophotometric analysis relative to control", "type": "toxicity, cell-based, Erythrocyte", "conditions": "red blood cells (erythrocytes), at 400 µg/mL, read-out: Activity"}, "Escherichia coli [18]": {"tested_on": "Escherichia coli", "assay": "Antibacterial activity against Escherichia coli ATCC 25922 harboring hldE knock-out assessed as inhibition of bacterial growth incubated for 18 hrs", "type": "functional", "conditions": "read-out: MIC100"}, "Salmonella typhimurium": {"tested_on": "Salmonella typhimurium", "assay": "Antibacterial activity against Salmonella typhimurium ATCC 13311 assessed as inhibition of bacterial growth incubated for 18 hrs", "type": "functional, Salmonella enterica subsp. enterica serovar Typhimurium", "conditions": "Salmonella enterica, read-out: MIC100"}, "[19]": {"assay": "Cmax in Swiss mouse plasma at 10 mg/kg, iv administered as single bolus dose and measured upto 24 hrs by LC-MS/MS analysis", "type": "ADME, organism-based"}, "Escherichia coli [20]": {"tested_on": "Escherichia coli", "assay": "Antibacterial activity against wild-type Escherichia coli ATCC 25922 assessed as inhibition of bacterial growth incubated for 18 hrs in presence of 50% heat inactivated human serum", "type": "functional", "conditions": "read-out: MIC100"}, "Acinetobacter baumannii": {"tested_on": "Acinetobacter baumannii", "assay": "Antibacterial activity against wild-type Acinetobacter baumannii ATCC 19606 assessed as inhibition of bacterial growth incubated for 20 hrs", "type": "functional", "conditions": "read-out: MIC100"}, "Escherichia coli [21]": {"tested_on": "Escherichia coli", "assay": "Antibacterial activity against colistin resistant Escherichia coli NCTC 13846 harboring mcr-1 gene assessed as inhibition of bacterial growth incubated for 18 hrs", "type": "functional", "conditions": "read-out: MIC100"}, "[22]": {"assay": "Clearance in human microsomes", "type": "ADME, Microsome"}, "[23]": {"assay": "Genotoxicity in human TK6 cells measured after 3 to 24 hrs", "type": "toxicity, cell-based", "conditions": "time 3-24 hrs"}, "Klebsiella pneumoniae [24]": {"tested_on": "Klebsiella pneumoniae", "assay": "Antibacterial activity against Klebsiella pneumoniae ATCC 43816 infected in cyclophosphamide immunosuppressed Swiss albino mouse respiratory infection model at 30 to 90 mg/kg, iv administered every 2 hrs starting from 1 hr post infection and measured 5 hrs post infection", "type": "functional, organism-based", "conditions": "dose 30-90 mg/kg, time 4.0 hrs"}, "Klebsiella pneumoniae [25]": {"tested_on": "Klebsiella pneumoniae", "assay": "Antibacterial activity against Klebsiella pneumoniae ATCC 43816 infected in mouse urinary tract infection model at <10 mg/kg, iv administered every 4 hrs and measured after 26 hrs", "type": "functional, organism-based"}, "Pseudomonas aeruginosa": {"tested_on": "Pseudomonas aeruginosa", "assay": "Antibacterial activity against efflux-deficient Pseudomonas aeruginosa PAO750 assessed as inhibition of bacterial growth incubated for 18 hrs", "type": "functional", "conditions": "read-out: MIC100"}, "Klebsiella pneumoniae [26]": {"tested_on": "Klebsiella pneumoniae", "assay": "Antibacterial activity against wild-type Klebsiella pneumoniae ATCC 13883 assessed as inhibition of bacterial growth incubated for 18 hrs", "type": "functional", "conditions": "read-out: MIC100"}, "[27]": {"assay": "AUClast in Swiss mouse liver at 10 mg/kg, iv administered as single bolus dose and measured upto 24 hrs by LC-MS/MS analysis", "type": "ADME, organism-based"}, "[28]": {"assay": "Toxicity in naive mouse assessed as animal death at >15 mg/kg, iv administered as single dose every 4 hrs for 24 hrs", "type": "organism-based", "conditions": "in vivo"}, "Cell membrane": {"tested_on": "Cell membrane", "assay": "Induction of membrane permeabilization in Klebsiella pneumoniae ATCC 13883 at 32 to 64 ug/ml measured after 30 mins by Sytox Green labelling based microscopic analysis", "type": "cell membranes", "conditions": "dose 32-64 µg/ml"}, "[29]": {"assay": "Volume of distribution at steady state in Swiss mouse at 10 mg/kg, iv administered as single bolus dose and measured upto 24 hrs by LC-MS/MS analysis", "type": "ADME, organism-based", "conditions": "in vivo, read-out: Vdss"}},
  "note": "Calls of active or inactive are those of the source. The calls are words filed in the database; no cut-off is given here.",
  "data": [
    {"smiles": "CC[C@H](C)[C@@H](NC(=O)[C@@H](NC(=O)[C@H](CCC(=O)O)NC(=O)[C@H](Cc1ccccc1)NC(=O)[C@@H](CCN)NC(=O)[C@H](CCN)NC(=O)[C@H](CO)NC(=O)[C@@H](Cc1c[nH]c2ccccc12)NC(=O)[C@@H](CO)NC(=O)CNC(=O)[C@@H](CCN)NC(=O)[C@H](NC(=O)[C@H](C)N)C(C)C)C(C)C)C(=O)N[C@@H](C)C(=O)O", "values": [
      {"measurement": "MIC", "setting": "Klebsiella pneumoniae [1]", "value": 8, "unit": "µg/mL"},
      {"measurement": "Activity", "setting": "Escherichia coli [2]", "value": "Active"},
      {"measurement": "inhibition (INH)", "setting": "Cytochrome P450 1A2 [3]", "value": "Not Active"},
      {"measurement": "MIC", "setting": "Escherichia coli [4]", "value": 4, "unit": "µg/mL"},
      {"measurement": "fold change (FC)", "setting": "Escherichia coli [5]", "value": 2},
      {"measurement": "Activity", "setting": "Escherichia coli [6]", "value": "Active"},
      {"measurement": "MIC", "setting": "Providencia stuartii", "value": "> 32", "unit": "µg/mL"},
      {"measurement": "log(activity)", "setting": "Escherichia coli [7]", "value": 1},
      {"measurement": "microsomal CLint", "setting": "[8]", "value": 19, "unit": "µL/min/mg"},
      {"measurement": "MIC", "setting": "Staphylococcus aureus", "value": "> 64", "unit": "µg/mL"},
      {"measurement": "log(activity)", "setting": "Escherichia coli [9]", "value": "~2"},
      {"measurement": "Activity", "setting": "Cytochrome P450 1A2 [10]", "value": "Not Active"},
      {"measurement": "Activity", "setting": "Klebsiella pneumoniae [11]", "value": "Active"},
      {"measurement": "MIC", "setting": "Klebsiella pneumoniae [12]", "value": 8, "unit": "µg/mL"},
      {"measurement": "MIC", "setting": "Proteus mirabilis", "value": "> 32", "unit": "µg/mL"},
      {"measurement": "log(activity)", "setting": "Escherichia coli [13]", "value": "~2"},
      {"measurement": "Activity", "setting": "Klebsiella pneumoniae [14]", "value": "Active"},
      {"measurement": "microsomal CLint", "setting": "[15]", "value": 2, "unit": "µL/min/mg"},
      {"measurement": "IC50 at 40 h", "setting": "[16]", "value": "> 170", "unit": "µg/mL"},
      {"measurement": "hemolysis at 0.75 h, 400 ug/ml", "setting": "[17]", "value": 9.1, "unit": "%"},
      {"measurement": "MIC", "setting": "Escherichia coli [18]", "value": 4, "unit": "µg/mL"},
      {"measurement": "MIC", "setting": "Salmonella typhimurium", "value": 16, "unit": "µg/mL"},
      {"measurement": "Cmax", "setting": "[19]", "value": 166, "unit": "µg/mL"},
      {"measurement": "MIC", "setting": "Escherichia coli [20]", "value": 2, "unit": "µg/mL"},
      {"measurement": "MIC", "setting": "Acinetobacter baumannii", "value": 32, "unit": "µg/mL"},
      {"measurement": "MIC", "setting": "Escherichia coli [21]", "value": 2, "unit": "µg/mL"},
      {"measurement": "microsomal CLint", "setting": "[22]", "value": 23, "unit": "µL/min/mg"},
      {"measurement": "Activity", "setting": "[23]", "value": "Non-Toxic"},
      {"measurement": "Activity", "setting": "Klebsiella pneumoniae [24]", "value": "Active"},
      {"measurement": "Activity", "setting": "Klebsiella pneumoniae [25]", "value": "Active"},
      {"measurement": "MIC", "setting": "Pseudomonas aeruginosa", "value": 32, "unit": "µg/mL"},
      {"measurement": "MIC", "setting": "Klebsiella pneumoniae [26]", "value": 4, "unit": "µg/mL"},
      {"measurement": "AUC(0-t) at 24 h", "setting": "[27]", "value": 3020, "unit": "ng·h/mL"},
      {"measurement": "Activity", "setting": "[28]", "value": "Toxic"},
      {"measurement": "Activity", "setting": "Cell membrane", "value": "Active"},
      {"measurement": "Vd", "setting": "[29]", "value": 0.1, "unit": "L/kg"}
    ]}
  ]
}
